According to PMC7023430, “4-Aminobenzoic Acid Derivatives: Converting Folate Precursor to Antimicrobial and Cytotoxic Agents” (Biomolecules, 2019):
≈ marks a conversion by molar mass, not a printed value. Where two headings read alike, the source gives them in different places.

Legend:
[1] = test system: Klebsiella pneumoniae D 11750/08; assay: Antibacterial microdilution broth method, K. pneumoniae; settings: K. pneumoniae D 11750/08
[2] = test system: Mtb. 331/88 and three non-tuberculous mycobacterial strains; assay: Antimycobacterial activity; format: cell-based; settings: statement over four mycobacterial strains; time not stated
Trichosporon asahii 1188 = assay: Antifungal microdilution broth method, T. asahii; format: cell-based
Procedure: (§1) The antifungal properties were evaluated against five yeast strains, namely: Candida albicans ATCC 44859, Candida tropicalis 156, Candida krusei […], Candida glabrata 20/I, Trichosporon […] 1188 and three strains of filamentous fungi: Aspergillus fumigatus 231, Lichtheimia corymbifera 272, and Trichophyton interdigitale 445. A microdilution broth method was performed according to EUCAST II, III instructions with slight modifications. Briefly, tested compounds were dissolved in DMSO and diluted in a twofold manner with RPMI-1640 medium with L-glutamine, supplemented with 2% glucose (w/v) and buffered to pH 7.0 with 3 morpholinopropane-1-sulfonic acid (all components were purchased from Sigma-Aldrich, USA). […] Positive controls consisted of test microbe solely, while negative controls consisted of medium and DMSO. Internal quality control was included too. Visual inspection was used for MIC endpoints evaluation. The experiments were conducted in duplicates. For the results to be valid, the difference in MIC determined from two parallel measurements must not be greater than one step on the dilution scale. PABA and triazole antimycotic drug fluconazole were involved as the reference compounds.

Candida krusei E28 = assay: Antifungal microdilution broth method, C. krusei; format: cell-based; settings: Pichia kudriavzevii
Procedure: as §1

[3] = test system: Mycobacterium kansasii 235/80; assay: Antimycobacterial micromethod in Šula's medium, M. kansasii 235/80; format: cell-based
[4] = test system: Candida albicans ATCC 44859; assay: Antifungal microdilution broth method, C. albicans; format: cell-based
Procedure: as §1

[5] = test system: Trichophyton interdigitale 445; assay: Antifungal microdilution broth method, T. interdigitale; format: cell-based
Procedure: as §1

Candida tropicalis 156 = assay: Antifungal microdilution broth method, C. tropicalis; format: cell-based
Procedure: as §1

eight fungal strains = assay: Antifungal activity; format: cell-based; settings: statement over the fungal panel; time not stated
Procedure: as §1

[6] = test system: Staphylococcus aureus ATCC 29213, CCM 4223; assay: Antibacterial microdilution broth method, S. aureus; format: cell-based
[7] = test system: methicillin-resistant Staphylococcus aureus ATCC 43300, CCM 4750 (MRSA); assay: Antibacterial microdilution broth method, MRSA; format: cell-based; settings: Staphylococcus aureus
[8] = test system: Staphylococcus epidermidis H 6966/08; assay: Antibacterial microdilution broth method, S. epidermidis; format: cell-based; settings: Staphylococcus epidermidis, H6966/08, S. epidermidis
[9] = test system: Mycobacterium avium 330/88; assay: Antimycobacterial micromethod in Šula's medium, M. avium; format: cell-based
[10] = test system: Aspergillus fumigatus 231; assay: Antifungal microdilution broth method, A. fumigatus; format: cell-based
Procedure: as §1

[11] = test system: Enterococcus faecalis ATCC 29212, CCM 4224; assay: Antibacterial microdilution broth method, E. faecalis; format: cell-based; settings: Enterococcus faecalis
[12] = test system: Pseudomonas aeruginosa ATCC 27853, CCM 3955; assay: Antibacterial microdilution broth method, P. aeruginosa; format: cell-based; settings: Pseudomonas aeruginosa, P. aeruginosa
[13] = test system: Mycobacterium tuberculosis H37Rv (331/88); assay: Antimycobacterial micromethod in Šula's medium, M. tuberculosis; format: cell-based
Candida glabrata 20/I = assay: Antifungal microdilution broth method, C. glabrata; format: cell-based; settings: Nakaseomyces glabratus
Procedure: as §1

[14] = test system: Lichtheimia corymbifera 272; assay: Antifungal microdilution broth method, L. corymbifera; format: cell-based
Procedure: as §1

[15] = test system: M. kansasii 6509/96 (clinical isolate); assay: Antimycobacterial micromethod in Šula's medium, M. kansasii 6509/96; format: cell-based; settings: Mycobacterium kansasii
[16] = test system: ESBL-positive Klebsiella pneumoniae J 14368/08
[17] = test system: Escherichia coli ATCC 25922, CCM 3954; assay: Antibacterial microdilution broth method, E. coli; format: cell-based; settings: Escherichia coli
[18] = test system: four Gram-positive and four Gram-negative strains; assay: Antibacterial activity; format: cell-based; settings: statement over the bacterial panel; time not stated

O=C(O)c1ccc(N=Cc2ccccc2O)cc1 [1a, 4-[(2-Hydroxybenzylidene)amino]benzoic acid]
MIC KP 24 h ([1]; 24 h incubation): >500 µM | MIC KP 48 h ([1]; 48 h incubation): >500 µM | MIC, antimycobacterial activity [2]: only negligible antimycobacterial activity | MIC (Trichosporon asahii 1188; 24 h, read-out: MIC TA 24 h): > 500 µM | MIC (Trichosporon asahii 1188; 48 h, read-out: MIC TA 48 h): > 500 µM | MIC (Candida krusei E28; 24 h, read-out: MIC CK 24 h): > 500 µM | MIC (Candida krusei E28; 48 h, read-out: MIC CK 48 h): > 500 µM | MIC ([3]; 235/80, 168 h, 7 days incubation at 37 °C, read-out: MIC M. kansasii 235/80 7 d): 1000 µM (≈ 241 µg/mL) | MIC ([3]; 235/80, 336 h, 14 days incubation at 37 °C, read-out: MIC M. kansasii 235/80 14 d): > 1000 µM | MIC ([3]; 235/80, 504 h, 21 days incubation at 37 °C, read-out: MIC M. kansasii 235/80 21 d): > 1000 µM | MIC ([4]; ATCC44859, 24 h, read-out: MIC CA 24 h): > 500 µM | MIC ([4]; ATCC44859, 48 h, read-out: MIC CA 48 h): > 500 µM | MIC ([5]; 72 h, read-out: MIC TI 72 h): > 500 µM | MIC ([5]; 120 h, read-out: MIC TI 120 h): > 500 µM | MIC (Candida tropicalis 156; 24 h, read-out: MIC CT 24 h): > 500 µM | MIC (Candida tropicalis 156; 48 h, read-out: MIC CT 48 h): > 500 µM | MIC, antifungal activity (eight fungal strains): no antimycotic potency | MIC ([6]; 24 h incubation, read-out: MIC SA 24 h): > 500 µM | MIC ([6]; 48 h incubation, read-out: MIC SA 48 h): > 500 µM | MIC ([7]; 24 h incubation, read-out: MIC MRSA 24 h): > 500 µM | MIC ([7]; 48 h incubation, read-out: MIC MRSA 48 h): > 500 µM | MIC ([8]; 24 h incubation, read-out: MIC SE 24 h): > 500 µM | MIC ([8]; 48 h incubation, read-out: MIC SE 48 h): > 500 µM | MIC ([9]; 330/88, 336 h, 14 days incubation at 37 °C, read-out: MIC M. avium 330/88 14 d): > 1000 µM | MIC ([9]; 330/88, 504 h, 21 days incubation at 37 °C, read-out: MIC M. avium 330/88 21 d): > 1000 µM | MIC ([10]; 24 h, read-out: MIC AF 24 h): > 500 µM | MIC ([10]; 48 h, read-out: MIC AF 48 h): > 500 µM | MIC ([11]; 24 h incubation, read-out: MIC EF 24 h): > 500 µM | MIC ([11]; 48 h incubation, read-out: MIC EF 48 h): > 500 µM | MIC ([12]; 24 h incubation, read-out: MIC PA 24 h): > 500 µM | MIC ([12]; 48 h incubation, read-out: MIC PA 48 h): > 500 µM | MIC ([13]; 336 h, 14 days incubation at 37 °C, read-out: MIC Mtb. 331/88 14 d): > 1000 µM | MIC ([13]; 504 h, 21 days incubation at 37 °C, read-out: MIC Mtb. 331/88 21 d): > 1000 µM | MIC (Candida glabrata 20/I; 24 h, read-out: MIC CG 24 h): > 500 µM | MIC (Candida glabrata 20/I; 48 h, read-out: MIC CG 48 h): > 500 µM | MIC ([14]; 24 h, read-out: MIC LC 24 h): > 500 µM | MIC ([14]; 48 h, read-out: MIC LC 48 h): > 500 µM | MIC ([15]; 168 h, 7 days incubation at 37 °C, read-out: MIC M. kansasii 6509/96 7 d): 1000 µM (≈ 241 µg/mL) | MIC ([15]; 336 h, 14 days incubation at 37 °C, read-out: MIC M. kansasii 6509/96 14 d): 1000 µM (≈ 241 µg/mL) | MIC ([15]; 504 h, 21 days incubation at 37 °C, read-out: MIC M. kansasii 6509/96 21 d): 1000 µM (≈ 241 µg/mL) | MIC KP-E 24 h ([16]; 24 h): >500 µM | MIC KP-E 48 h ([16]; 48 h): >500 µM | MIC ([17]; 24 h incubation, read-out: MIC EC 24 h): > 500 µM | MIC ([17]; 48 h incubation, read-out: MIC EC 48 h): > 500 µM | MIC, antibacterial activity [18]: avoided any antibacterial action
